Data as given in patent publication US20150191484A1, “NOVEL COMPOUNDS HAVING A TETRACYCLIC IRIDOID SKELTON AND AN ANTI-TRYPANOSOMAL AGENT COMPRISING THE SAME AS AN ACTIVE INGREDIENT” (NATIONAL UNIVERSITY CORPORATION TOKYO MEDICAL AND DENTAL …, priority 2014, published 2015).

What was measured:
[1] = tested on: GUTat 3.1 strain of the bloodstream forms of T. b. brucei parasites; assay: Alamar Blue assay (trypanocidal activity); assay type: cell-based, Trypanosoma brucei brucei
Method: (§1) The GUTat 3.1 strain of the bloodstream forms of T. b. brucei parasites was used for this study. Parasites were cultured in vitro according to the conditions established by Yabu et al, 1998.
(§2) Parasites were used when they reached a confluent concentration of 1×10^6 parasites/ml. Estimation of parasitemia was done with the Neubauer's counting chamber. Parasites were diluted to a concentration of 3×10^5 parasites/ml with HMI-9 medium and used for the various experiments.
The Alamar Blue assay was carried out in a 96-well plate. About 1.5×10^4 Parasites were seeded with varied concentrations of the Morinda lucida crude extract, ranging from as low as 0.78 μg/ml to as high as 200 μg/ml, in a ratio of 1:1 in 100 μl volume per well. Berberine, a compound known as anti-trypanocidal agent, was used as a positive control. […] The parasites were incubated with the plant extracts for 24 hours at 37° C. and under 5% CO2. After 24 hours, 10% Alamar Blue dye was added to each well and re-incubated for another 24 hours under the same conditions but in darkness. After a total of 48 hours, the plate was read for absorbance at 540 nm using the TECAN Sunrise Wako Spectrophotometer. An Absorbance-concentration (extract) curve was drawn and the IC50 value of the plant extract was extrapolated. Alamar Blue assay was also performed on the fractions and compounds purified from Morinda Lucida to determine their IC50 values. The IC50 values obtained were compared with that of the positive control and trypanocidal activity determined.

[2] = MTT cytotoxicity assay, NB1RGB; assay type: cell-based, human; details: human, NB1RGB normal fibroblast cells; NB1RGB normal fibroblast, 48 h, MTT
Method: (§3) The cytotoxic activity of natural products against mammalian cells is an important point in the search for active compounds with biological activity. […] In order to confirm the selective and potent anti-trypanosomal activity of ML-2-2 and ML-2-3, we examined their cytotoxicity in a panel of human cell lines including two human fibroblastic and 8 human cancer-derived cell lines. Cells were seeded in 96-well microplates and incubated with ML-2-2 and ML-2-3 for 48 h at 37° C. in a 5% CO2 humidified incubator. The viabilities of cells were determined with the MTT (3-(4,5-dimethylthiazol-2-yl)-2-5-diphenyltetrazolium bromide) assay. The selectivity index (SI) was determined using the following equation: IC50 against human cells/IC50 against T. brucei. The IC50 values of ML-2-3 were higher than those of ML-2-2 in all the cell lines examined. […] The SI of ML-2-2 indicates values below 1.00 in most cell lines. On the other hand, SI values of ML-2-3 were much higher than those of ML-2-2 in all tested cell lines.

[3] = tested on: NB1RGB (normal fibroblast); assay: MTT cytotoxicity assay, NB1RGB; assay type: cell-based, human; details: IC50 against NB1RGB / IC50 against T. brucei
Method: as §3

[4] = MTT cytotoxicity assay, Caco2; assay type: cell-based, human; details: human, Caco2 colon cancer cells; Caco2 colon cancer, 48 h, MTT
Method: as §3

Caco2 (colon cancer) = assay: MTT cytotoxicity assay, Caco2; assay type: cell-based, human; details: IC50 against Caco2 / IC50 against T. brucei
Method: as §3

[5] = MTT cytotoxicity assay, Jurkat; assay type: cell-based, human; details: human, Jurkat leukemia cells; Jurkat leukemia, 48 h, MTT
Method: as §3

Jurkat (leukemia) = assay: MTT cytotoxicity assay, Jurkat; assay type: cell-based, human; details: IC50 against Jurkat / IC50 against T. brucei
Method: as §3

[6] = MTT cytotoxicity assay, U937; assay type: cell-based, human; details: human, U937 leukemia cells; U937 leukemia, 48 h, MTT
Method: as §3

U937 (leukemia) = assay: MTT cytotoxicity assay, U937; assay type: cell-based, human; details: IC50 against U937 / IC50 against T. brucei
Method: as §3

[7] = MTT cytotoxicity assay, HL-60; assay type: cell-based, human; details: human, HL-60 leukemia cells; HL-60 leukemia, 48 h, MTT
Method: as §3

HL-60 (leukemia) = assay: MTT cytotoxicity assay, HL-60; assay type: cell-based, human; details: IC50 against HL-60 / IC50 against T. brucei
Method: as §3

Trypanosoma cells [8] = assay: Nexin apoptosis assay (FACS); assay type: cell-based, Trypanosoma brucei brucei
Method: as §1, §2
This assay was performed to detect both Phosphatidylserine (PS) signal and fracture of nuclear membraneas markers of apoptosis. Seeding and incubation of parasites with plant materials (extracts, fractions and compounds) were done under the same conditions in Alamar Blue assay. […] The contents of the wells were then subjected to FACS analysis using, the Millipore guava easyCyte 5HT FACS machine for the sorting and estimation of apoptotic parasites according to the manufacturer's instructions.

Trypanosoma cells [9] = assay: Immunohistochemistry / immuno-fluorescence analysis (anti-α tubulin, DAPI); assay type: cell-based, Trypanosoma brucei brucei; details: 15 μM (four times of IC50)
Method: as §1, §2
Immunohistochemistry was performed to detect any morphological or phenotypic changes which may be caused by extracts/compounds with trypanocidal effect. The initial steps of immunohistochemistry are the same as that for the Cell Cycle Assay. After fixing the parasites at −20° C. for an hour, 500 μl of the fixed parasites were transferred to an 8-chamber slide. The parasites were incubated at 4° C. overnight to allow the fixed parasites to adhere to the slide surface. The 70% EtOH was then discarded completely. 500 μl of PBS was added to each chamber and incubated for 5 min, after which PBS was discarded. The parasites were further washed with 500 μl of PBST (0.01% Triton X 100 in PBS) for 5 min and the washing solution discarded. 500 μl of blocking reagent (3% BSA in PBST) was added to the chamber and incubated for 30 min at room temperature, after which the blocking reagent was discarded. Each chamber was filled with 500 μl Anti-α tubulin antibody and incubated for 1 hour. The antibody was then discarded and the parasites were incubated with 500 μl of DAPI (5 μg/ml DAPI in PBS) for 10 min in the dark. The wells were washed twice with 500 μl of PBS and once with 500 μl of PBST. The 8-chamber block was detached from the slide and a few drops of parmafluor mounting reagent were put on the slide. The slide was covered carefully with a cover slip. The covered slide was allowed to dry in the dark and the edge of the cover slip sealed with clear nail varnish. The slide was observed under the Olympus fluorescent microscope.

Which IC50 ([1]; T. b. brucei, Alamar Blue, 48 h, read-out: IC50 of anti-trypanosomal activity) does the source give for `COc1cc(/C=C2/C(=O)O[C@]34C=C[C@@H]5C(C(=O)O)=CO[C@H](O[C@@H]23)[C@@H]54)ccc1O` [ML-2-3, (3aS,4aR,4a^1S,7aS,9aS,3E)-3-(4-hydroxy-3-methoxybenzylidene)-2-oxo-2,3,3a,4a,4a^1,7a-hexahydro-1,4,5-trioxadicyclopenta[a,hi]indene-7-carboxylic acid] here?
Its IC50 is 3.75 µM.

And the “inhibition of the growth of Trypanosoma brucei brucei (in words)” value ([1]; in vitro)?
Its value is “the most potent in vitro activity”.

And the IC50 at 48 h [2]?
The IC50 at 48 h was 37.4 µM.

And the “SI (selectivity index)” value [3]?
Its value is 9.96.

What about the IC50 at 48 h [4] of the same compound?
Its IC50 at 48 h is 44.6 µM.

What about the “SI (selectivity index)” value (Caco2 (colon cancer)) of the same compound?
The value was 11.88.

What about the IC50 at 48 h [5] of the same compound?
Its IC50 at 48 h is 12.4 µM.

And the “SI (selectivity index)” value (Jurkat (leukemia))?
The value was 3.31.

And the IC50 at 48 h [6]?
The IC50 at 48 h was 12 µM.

And the “SI (selectivity index)” value (U937 (leukemia))?
The value was 3.21.

What about the IC50 at 48 h [7] of the same compound?
The IC50 at 48 h was 25.5 µM.

And the “SI (selectivity index)” value (HL-60 (leukemia))?
Its value is 6.81.

And the “proportion of cells at early stage of apoptosis” value (Trypanosoma cells [8]; 5 μM, 3 hours incubation)?
The value was 2.5%.

And the “proportion of cells at early stage of apoptosis” value (Trypanosoma cells [8]; 5 μM, 12 hours of incubation)?
The value was “about 10%”.

What about the “incubation time at which significant increase in proportion of late stage apoptotic cells was observed” value (Trypanosoma cells [8]; 5 μM, time course 0, 3, 6, 9 and 12 hours) of the same compound?
Its value is “around 6 hours”.

What about the induction of apoptosis (Trypanosoma cells [8]; 6.25 μM, 24-hour incubation) of the same compound?
The induction of apoptosis was “induced strong apoptosis”.

And the “early stage apoptotic cells” value (Trypanosoma cells [8]; 6.25 μM, 24-hour incubation, negative control 0.2%)?
Its value is 7.8%.

And the “late stages apoptotic cells” value (Trypanosoma cells [8]; 6.25 μM, 24-hour incubation, negative control none)?
Its value is 4.4%.

And the “induction of apoptosis in Trypanosoma cells” value (Trypanosoma cells [8]; same concentration (6 μM))?
Its value is “strongly induced apoptosis”.

What about the “expression of α-tubulin” value (Trypanosoma cells [9]) of the same compound?
Its value is “significantly suppressed”.

And the flagellum phenotype (Trypanosoma cells [9])?
The flagellum phenotype was “no flagellum phenotype”.

What about the nuclear fragmentation (Trypanosoma cells [9]) of the same compound?
The nuclear fragmentation was “clearly induced the fragmented nuclei”.
